“Also recorded” adds a separate entry of the source. Where two headings read alike, the source gives them in different places. Numbered stars: 1 amine (or outer) side, 2 acyl side, 3 side chain; on linkers, the order of the positions; unused ones are H or OH. Square brackets hold non-standard residues; d marks the D form. Peptide text beside a SMILES is read from it. * marks the point of attachment. UDPMurNAc = CC(=O)N[C@H]1[C@@H](OP(=O)(O)OP(=O)(O)OC[C@H]2O[C@@H](n3ccc(=O)[nH]c3=O)[C@H](O)[C@@H]2O)O[C@H](CO)[C@@H](O)[C@@H]1O[C@H](C)C(=O)*; d(γGlu) = O=C(O)[C@@H](CCC(=O)[*:2])N[*:1]; NBD = O=[N+]([O-])c1ccc(*)c2nonc12; GABA = NCCCC(=O)O
How the values were obtained:
[1] = biological target: T1, MraYBS (Bacillus subtilis, UniProt Q03521); assay: HPLC-based MraY functional assay (substrate activity); type: biochemical; details: for recognized as a MraYBS substrate: analogue 10 μM, C55P 200 μM; for recognized as a MraYBS substrate / conversion %: MraYBS 10 μg/mL; for recognized as a MraYBS substrate / substrate under extreme reaction conditions / conversion %: 37 °C; for substrate under extreme reaction conditions: Park's nucleotides 10 μM, MraYBS 40 μg/mL, C55P 1 mM, 24 h; for conversion %: lipid phosphates 200 μM, NBD-Park's nucleotide (6) 10 μM, 1 h, from consumption of 6, n = 3, average ± SD
T1 construct: MBP; made in house
T1 sequence (Q03521 1-324): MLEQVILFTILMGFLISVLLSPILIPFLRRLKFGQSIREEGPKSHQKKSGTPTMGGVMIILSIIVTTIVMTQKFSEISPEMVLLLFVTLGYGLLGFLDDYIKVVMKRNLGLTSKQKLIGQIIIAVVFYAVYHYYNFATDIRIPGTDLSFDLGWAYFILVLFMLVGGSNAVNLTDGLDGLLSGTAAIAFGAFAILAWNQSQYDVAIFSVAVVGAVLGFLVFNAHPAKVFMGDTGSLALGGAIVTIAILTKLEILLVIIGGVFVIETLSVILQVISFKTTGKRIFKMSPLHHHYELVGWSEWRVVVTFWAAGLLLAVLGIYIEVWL
Protocol: The purified MraY from Bacillus subtilis was prepared as described in our previous reports. […] […] The reaction mixtures were added by uridine (0.01 mg/mL) as the internal standard and heated to 100 °C to stop the transferring reaction. The samples were analyzed by RP-C18 HPLC with gradient elution of 0.25 M NH4HCO3(aq)/15% MeOH in water (100:0 to 0:100) at a flow rate of 1 mL/min over 45 min, and the peaks of substrates were monitored at UV 260 nm. For 6 and 11–17, the reaction mixture containing MraYBS (10 μg/mL), C55P (200 μM), 6-(7-Nitro-2,1,3-benzoxadiazol-4-ylamino)hexanoic acid (5 μM, internal standard) in 10 μL reaction buffer (30 mM Tris, 10 mM MgCl2, 10 mM NaCl, 0.1 mM Tween-20, 2.5% DMSO, pH 8.0) were pre-incubated at 37 °C for 15 min. […] The reaction mixtures were heated to 100 °C to stop the transferring reaction, and samples were analyzed by an anion-exchange column (SAX1, Supelco Co., 5 μm, 4.6 × 250 mm) with a linear gradient elution of NH4OAc (20 mM to 1 M in MeOH) at a flow rate of 1.0 mL/min over 30 min. The fluorescent substrates were monitored with λex 466 nm/λem 535 nm by fluorescence detector.

[2] = biological target: T1, MraYBS; assay: Biolayer interferometry-based (BLI) binding assay; details: for binding affinity with MraYBS: concentrations up to 500 μM
Protocol: MraYBS binding was measured in a biolayer interferometry-based binding assay on Octet Red96® instrument (ForteBio, Inc.). The biotinylation of MraYBS was performed with using EZ-Link® Sulfo-NHS-LC-LC-Biotin Kit (Thermo Fisher Scientific, Inc.). In general, MraYBS (1.7 mg/mL) in 50 μL reaction buffer (0.01 M HEPES pH 7.4, 0.15 M NaCl, 0.005% v/v Surfactant P20), was added by the sulfo-NHS-LC-LC-biotin reagent (1 mM, 1 μL). After incubating for 30 minutes at room temperature, the biotinylated-MraYBS was purified by a Zeba^TM Spin Desalting Columns, 7K MWCO (Thermo Fisher Scientific, Inc.), and the buffer was changed to the binding buffer (30 mM Tris, 10 mM MgCl2, 10 mM NaCl, 0.1 mM Tween-20, pH 8.0) during the purification. Comparing to the non-biotinylated-MraYBS, the biotinylated-MraYBS remains 62% activity measured by the HPLC-based MraY functional assay in 1 h reaction. The biotinylated MraYBS was then immobilized to Super Streptavidin (SSA) Octet tips (ForteBio, Inc.) for reaching a fixed signal of 3 nm. Before the assay starting, the MraYBS-labeled SSA sensors were pre-soaked in binding buffer for 30 min. The association of Park’s analogues with MraYBS were measured by incubating MraYBS-labeled SSA sensors in binding buffer containing various concentrations of samples in Octet Red system. The dissociation was monitored by moving the ligand biosenors from the analyte solution to binding buffer. The dissociation constants (KD) were obtained by nonlinear regression analysis using the specific binding model with the GraphPad Prism program (GraphPad Software, San Diego, CA).

[3] = biological target: T1, MraYBS; assay: MraY fluorescence enhancement assay (kinetics, inhibition); type: biochemical; details: for Inhibition Mode: Lineweaver-Burk
Protocol: Determine kinetic parameters by MraY fluorescence enhancement assay. The fluorescence enhancement assay was performed in 384-well plate as described by Bugg et al. with slight modifications.5 The reaction mixture containing MraYBS (10 μg/mL), C55P (200 μM) in 30 μL reaction buffer (30 mM Tris, 10 mM MgCl2, 10 mM NaCl, 0.1 mM Tween-20, 2.5% DMSO, pH 8.0) were pre-incubated at 37 °C for 15 min. The reactions were initiated by the addition of various concentrations of NBD-Park’s nucleotide 6 (0 to 160 μM). For inhibition study, a various concentrations of inhibitors were added before the addition of substrate 6. The continuous fluorescence increase over 60 min was monitored with λex 466 nm/λem 535 nm by fluorescence microplate reader (SpectraMax M5, Molecular Devices, LLC) at 37 °C. Linear regressions of increased fluorescent units (FLU) versus time (min) were used to calculate the initial velocities for each reaction. The kinetic parameters values (Ki, KM, and Vmax) were obtained by nonlinear regression analysis using the […] equation with the GraphPad Prism program (GraphPad Software, San

CC(=O)N[C@H]1[C@@H](OP(=O)(O)OP(=O)(O)OC[C@H]2O[C@@H](n3ccc(=O)[nH]c3=O)[C@H](O)[C@@H]2O)O[C@H](CO)[C@@H](O)[C@@H]1O[C@H](C)C(=O)N[C@@H](C)C(=O)N[C@H](CCC(=O)N[C@@H](CCCCN)C(=O)N[C@H](C)C(=O)N[C@H](C)C(=O)O)C(=O)O [Compound 5, Park’s nucleotide]
substrate consumption ([1]; C55P (200 μM) as polyprenyl phosphate substrate, substrate 10 μM, within 1 h (60 min)): completely consumed
Kd [2]: 120 µM

CC(=O)N[C@H]1[C@@H](OP(=O)(O)OP(=O)(O)OC[C@H]2O[C@@H](n3ccc(=O)[nH]c3=O)[C@H](O)[C@@H]2O)O[C@H](CO)[C@@H](O)[C@@H]1O[C@H](C)C(=O)N[C@@H](C)C(=O)N[C@H](CCC(=O)N[C@@H](CCCCN)C(=O)O)C(=O)O [Compound 7]
activity reduced compared with 5 ([1]; after 1 h reaction): 17%

CC(=O)N[C@H]1[C@@H](OP(=O)(O)OP(=O)(O)OC[C@H]2O[C@@H](n3ccc(=O)[nH]c3=O)[C@H](O)[C@@H]2O)O[C@H](CO)[C@@H](O)[C@@H]1O[C@H](C)C(=O)N[C@@H](C)C(=O)N[C@H](CCC(=O)O)C(=O)O [Compound 8]
substrate activity remained ([1]; after 1 h reaction, compared with 5): 40%

CC(=O)N[C@H]1[C@@H](OP(=O)(O)OP(=O)(O)OC[C@H]2O[C@@H](n3ccc(=O)[nH]c3=O)[C@H](O)[C@@H]2O)O[C@H](CO)[C@@H](O)[C@@H]1O[C@H](C)C(=O)N[C@@H](C)C(=O)O [Compound 9]
recognized as a MraYBS substrate [1]: not substrates
binding affinity with MraYBS [2]: no proper binding affinity

CC(=O)N[C@H]1[C@@H](OP(=O)(O)OP(=O)(O)OC[C@H]2O[C@@H](n3ccc(=O)[nH]c3=O)[C@H](O)[C@@H]2O)O[C@H](CO)[C@@H](O)[C@@H]1O [Compound 10, UDP-GlcNAc, reference compound]
recognized as a MraYBS substrate [1]: not substrates

CC(=O)N[C@H]1[C@@H](OP(=O)(O)OP(=O)(O)OC[C@H]2O[C@@H](n3ccc(=O)[nH]c3=O)[C@H](O)[C@@H]2O)O[C@H](CO)[C@H](O)[C@@H]1O[C@H](C)C(=O)N[C@@H](C)C(=O)N[C@H](CCC(=O)N[C@@H](CCCCNc1ccc([N+](=O)[O-])c2nonc12)C(=O)N[C@H](C)C(=O)N[C@H](C)C(=O)O)C(=O)O [Compound 11]
substrate under extreme reaction conditions [1]: did not function as substrates; also recorded: not be a substrate

CC(=O)N[C@H]1[C@@H](OP(=O)(O)OP(=O)(O)OC[C@H]2O[C@@H](n3ccc(=O)[nH]c3=O)[C@H](O)[C@@H]2O)O[C@H](CO)[C@@H](O)[C@@H]1O[C@H](C)C(=O)NCC(=O)N[C@H](CCC(=O)N[C@@H](CCCCNc1ccc([N+](=O)[O-])c2nonc12)C(=O)N[C@H](C)C(=O)N[C@H](C)C(=O)O)C(=O)O [Compound 15] (UDPMurNAc-G[d(γGlu)]K(NBD)[dA][dA]-OH)
relative activity compared to 6 ([1]; after 1 h reaction): about 80%

CC(=O)N[C@H]1[C@@H](OP(=O)(O)OP(=O)(O)OC[C@H]2O[C@@H](n3ccc(=O)[nH]c3=O)[C@H](O)[C@@H]2O)O[C@H](CO)[C@@H](O)[C@@H]1O[C@H](C)C(=O)N[C@@H](C)C(=O)NCCCC(=O)N[C@@H](CCCCNc1ccc([N+](=O)[O-])c2nonc12)C(=O)N[C@H](C)C(=O)N[C@H](C)C(=O)O [Compound 16] (UDPMurNAc-A[GABA]K(NBD)[dA][dA]-OH)
relative activity compared to 6 ([1]; after 1 h reaction): < 10%
binding affinity with MraYBS [2]: no proper binding affinity

CC(=O)N[C@H]1[C@@H](OP(=O)(O)OP(=O)(O)OC[C@H]2O[C@@H](n3cc(N)c(=O)[nH]c3=O)[C@H](O)[C@@H]2O)O[C@H](CO)[C@@H](O)[C@@H]1O[C@H](C)C(=O)N[C@@H](C)C(=O)N[C@H](CCC(=O)N[C@@H](CCCCNc1ccc([N+](=O)[O-])c2nonc12)C(=O)N[C@H](C)C(=O)N[C@H](C)C(=O)O)C(=O)O [Compound 17]
substrate under extreme reaction conditions [1]: did not function as substrates; also recorded: not be a substrate

CC(=O)N[C@H]1[C@@H](OP(=O)(O)OP(=O)(O)OC[C@H]2O[C@@H](n3cc(N)c(=O)[nH]c3=O)[C@H](O)[C@@H]2O)O[C@H](CO)[C@@H](O)[C@@H]1O[C@H](C)C(=O)N[C@@H](C)C(=O)O [Compound 18]
inhibitory activity ([3]; at 1 mM): no inhibition activity

CC(=O)Nc1cn([C@@H]2O[C@H](COP(=O)(O)OP(=O)(O)O[C@H]3O[C@H](CO)[C@@H](O)[C@H](O[C@H](C)C(=O)N[C@@H](C)C(=O)O)[C@H]3NC(C)=O)[C@@H](O)[C@H]2O)c(=O)[nH]c1=O [Compound 19]
Kd [2]: 281 ± 97 µM
Ki [3]: 764 ± 127 µM
Inhibition Mode ([3]; 6 as substrate): Competitive

CC(=O)N[C@H]1[C@@H](OP(=O)(O)OP(=O)(O)OC[C@H]2O[C@@H](n3cc(NC(=O)Cc4ccc(C)cc4)c(=O)[nH]c3=O)[C@H](O)[C@@H]2O)O[C@H](CO)[C@H](O)[C@@H]1O[C@H](C)C(=O)N[C@@H](C)C(=O)O [Compound 21]
Kd ([2]; BLI, without C55P): > 250 µM
binding interactions with MraYBS ([2]; concentration up to 250 μM): no sufficient binding interactions
inhibition at 1000 µM [3]: 30%

CC(C)=CCC/C(C)=C/CC/C(C)=C/CC/C(C)=C/CC/C(C)=C/CC/C(C)=C/CC/C(C)=C/CO [Heptaprenol, reference compound]
conversion % [1]: 55 ± 3%

CC(C)=CCC/C(C)=C/CC/C(C)=C/CC/C(C)=C/CC/C(C)=C/CC/C(C)=C/CO [Hexaprenol, reference compound]
conversion % [1]: 27 ± 6%

CC(C)=CCC/C(C)=C/CC/C(C)=C/CC/C(C)=C/CC/C(C)=C/CC/C(C)=C/CC/C(C)=C/CC/C(C)=C/CC/C(C)=C/CO [Solanesol, reference compound]
conversion % [1]: 12 ± 2%

CC(C)=CCCC(C)=CCCC(C)=CCCC(C)=CCO [Tetraprenol, reference compound]
conversion % [1]: 16 ± 5%

CC(C)=CCC/C(C)=C/CC/C(C)=C/CC/C(C)=C/CC/C(C)=C/CC/C(C)=C/CC/C(C)=C/CC/C(C)=C/CC/C(C)=C/CC/C(C)=C/CC/C(C)=C/CO [Undecaprenol, reference compound]
conversion % [1]: 96 ± 1%

Tunicamycins [reference compound]
Kd ([2]; BLI, without C55P, read-out: KD): 93 ± 16 µM
Ki ([3]; 6 as substrate, C55P 200 μM, read-out: Ki): 9 ± 1 µM
Inhibition Mode ([3]; 6 as substrate): Competitive

— PMC4987650, “Structural Investigation of Park’s Nucleotide on Bacterial Translocase MraY: Discovery of Unexpected MraY Inhibitors” (Scientific Reports, 2016)
